Measurements: patent publication US20220370636A1, “NICOTINAMIDE ADENINE DINUCLEOTIDE ACTIVATOR AND USE THEREOF” (University of South Florida, priority 2021, published 2022)

Key:
db/db mice [1] = test: Serum HDL and LDL/VLDL in db/db mice; type: in vivo; conditions: vs db-Veh
From the text: Fasting blood glucose and serum lipid.

db/db mice [2] = test: Fasting blood glucose and GTT in db/db mice (Example 5); type: in vivo
From the text: Fasting blood glucose. Mice were fasted overnight, and the tail vein blood was used for measuring the blood glucose levels of the diabetic mice treated with either Vehicle (db/db Veh) or P7C3 (db/db P7C3) for 4 weeks.
Glucose tolerance test. […] Blood samples were obtained by the submandibular puncture technique.

C57Bl/6J wildtype hearts = test: Ex vivo ischemia reperfusion (Langendorff) in wildtype hearts; set-up: species or system mice
Experimental: Ex vivo ischemia reperfusion protocol. Mice were injected with heparin (360 USP units, Sigma-Aldrich, MO, USA) and euthanized with Somnasol™ (pentobarbital, 50 mg/kg i.p. body weight). Hearts were then excised and mounted on to the Langendorff apparatus immediately and perfused with Krebs-Hanseleit buffer containing (in mM): 119 NaCl, 25 NaHCO3, 4 KCl, 1 MgCl2, 1.8 CaCl2), 1 MgCl2, 10 glucose and 2 Sodium pyruvate, pH 7.4, that was constantly bubbled with carbogen gas and maintained at 37° C. as described previously. Perfusion was maintained at a constant flow of ˜2.2 ml/min. Hearts were stabilized for 30 min before proceeding to the ischemic phase. Hearts that underwent P7C3 (3 μM) treatment during the Langendorff procedure were allowed to stabilize for 10 mins then a 20 min perfusion with P7C3 (3 μM) (within Krebs-Hanseleit buffer) as pre-ischemic dosing. Cardiac ischemia was induced by the pause in Krebs-Hanseleit buffer perfusion for 45 min. Reperfusion was induced with the induction of Krebs-Hanseleit buffer at a constant flow of ˜2.2 ml/min for 2 hours. Hearts that underwent P7C3 (3 μM) treatment received 2-hour reperfusion with P7C3 within the Krebs-Hanseleit buffer. Hearts were then removed from the Langendorff apparatus and immediately placed in −20° C. freezer for 30 minutes. Hearts were then placed on a sectioning block and sliced into ([…]) slices. Heart sections were subjected to 2,3,5-Triphenyltetrazolium chloride (TTC) staining for 30 minutes. Hearts were then imaged and scanned for ischemic damage assessment. Image J software was utilized to quantify the ischemic areas for several sections per heart, which were then averaged and divided by the total area of the heart section and multiplied by a factor of ×100(%) to determine the overall damage percentage per heart.
Lactate Dehydrogenase activity. […]. The absorbance intensity was measured at 450 nm.
Troponin I activity. […].
Western blotting. For studies aimed to assess the insulin stimulated AKT phosphorylation, following four-week P7C3 treatment, mice were injected with Novolin R human insulin (1 Unit/kg body weight, i.p.), and hearts were collected after 5 minutes for Western blot analysis. Protein lysates for Western blotting were prepared from mouse hearts as described previously. Equivalent amounts of protein were loaded and resolved using 12% precast polyacrylamide gels (BioRad, CA, USA). Successful transfer of proteins was detected using Ponceau S (Sigma-Aldrich, MO, USA), and blots were probed with mouse monoclonal primary antibody for phospho AKT^ser473 (p-AKT), total AKT (t-AKT), phospho eNOS^ser1177 (p-eNOS), total eNOS (t-eNOS), Beclin1, and GAPDH (Cell signaling, MA, USA). HRP conjugated Rabbit anti-mouse antibody (Millipore) was used as a secondary antibody. Target protein band densities were quantified using Image J software.

[3] = system: C57BL6 mice tibialis anterior muscle; test: BaCl2 induced tibialis anterior muscle injury in mice; type: in vivo
Experimental: Saline or 50 μl of 1% BaCl2 was injected in belly region of the muscle to induce inflammation. Muscle damage was assessed by H&E staining at day 7. The percentage of fibers recovered in higher in P7C3 treated group compared with saline treated group (FIG. 1B). The centrally placed nuclei were higher in P7C3 treated group with 3 or higher number of nuclei (FIG. 1C).
P7C3 administration (1 wk, 5 mg/kg bodyweight/day, i.p.) rescued tibialis anterior muscle injury induced by BaCl2 in mice. Administration of P7C3 increased frequency of myofiber number and fusion index as noted by increased centrally-nucleated fibers (FIGS. 1A-1C). Overall, these show the use P7C3, and the efficacy of P7C3 as a drug for muscle repair.

Sirt1 = Sirt1 deacetylase activity in db/db heart lysates; type: in vivo, mice; conditions: vs vehicle controls
Experimental: Sirt1 deacetylase activity. Sirt1 deacetylase activity was measured in the whole heart lysates from the vehicle and P7C3 treated db/db mice according to the manufacturer's protocol using a deacetylase fluorometric assay kit (Sigma-Aldrich, MO, USA). The fluorescence intensity was measured at 440 nm (excitation, 340 nm).

C2C12 cells = test: MTT cytotoxicity study in C2C12 cells; type: cell-based, mouse
Experimental: Cytotoxicity study. The cytotoxicity of P7C3 nanoparticles (P7C3 NP), and the skeletal muscle-specific aptamer-based targeted P7C3 nanoparticles (P7C3 NP Apt) were determined using the MTT assay in C2C12 cells and was compared with the P7C3 solution, DMSO and control media. Briefly, the mouse C2C12 myoblasts were seeded at a seeding density of 10,000 cells/well in three 96-well plates (Corning, N.Y., USA) in 100 μl of growth medium, i.e., DMEM F12 supplemented with 10% FBS, and 1% P/S and were allowed to grow for 24, 48, and 72 h after an initial attachment period of 24 h, which was considered as time 0. […] The 0 nM concentration had the solvent vehicle control DMSO, in which the drugs P7C3, 7C3 NPs, and P7C3 NPs Apt were dissolved. The MTT reagent solution (1 mg/mL) was added to each well after 24, 48, and 72 h of cell proliferation and the assay was performed according to the manufacturer's protocol (Thermo Fisher Scientific CyQUANT™ MTT Cell Viability Assay kit, USA). The spectrophotometer reading was measured at 540 nm wavelength using a Synergy H1 Hybrid Multi-Mode Reader. Cell viability was calculated and plotted, considering the optical density of solvent vehicle control DMSO wells as 100% viable.

[4] = WT hearts perfused with P7C3 3 μM
[5] = WT hearts, following I/R injury, vs control hearts
[6] = mice, 1 wk, 5 mg/kg bodyweight/day, i.p.

OC(CNc1ccccc1)Cn1c2ccc(Br)cc2c2cc(Br)ccc21 (stereo not shown) [P7C3, 3,6-Dibromo-a-[(phenylamino)methyl]-9H-carbazole-9-ethanol]
HDL lipoproteins level (db/db mice [1]): significant increase
LDL/VLDL lipoproteins level (db/db mice [1]): significant decrease
GTT decrease in circulating blood glucose from 30 minutes onwards (db/db mice [2]; db/db, 4 weeks, between treatment groups): non-significant
GTT area under curve (db/db mice [2]; db/db, trapezium method, p=0.0021): significant difference
fasting blood glucose levels (db/db mice [2]; overnight fasted db/db, 10 mg/kg/day i.p., 4 weeks, vs vehicle): significant decrease
increase in NAD+/NADH levels (C57Bl/6J wildtype hearts; [4]): 3 fold
increase in cardiac Nampt activity (C57Bl/6J wildtype hearts; [4]): 1.7 fold
ischemic injury (infarct) (C57Bl/6J wildtype hearts; WT hearts, P7C3 3 μM pre- and post-exposure): 8%
p-AKT/t-AKT levels post I/R injury (C57Bl/6J wildtype hearts; WT hearts, P7C3 3 μM, vs vehicle control hearts): significant increase
coronary effluent LDH activity (C57Bl/6J wildtype hearts; [5]): significantly reduced
coronary effluent Troponin I (C57Bl/6J wildtype hearts; [5]): significantly reduced
percentage of fibers recovered ([3]; H&E staining at day 7, vs saline treated group): higher
centrally placed nuclei (3 or higher number of nuclei) ([3]; day 7, vs saline treated group): higher
frequency of myofiber number [3, 6]: increased
fusion index (centrally-nucleated fibers) [3, 6]: increased
tibialis anterior muscle injury induced by BaCl2 [3, 6]: rescued
SiRT1 activity in cardiac tissue (Sirt1): significant increase
cytotoxicity (MTT cell viability) (C2C12 cells; 0, 10, 500, 1000 nM, 24, 48, 72 h): not toxic
cell viability (C2C12 cells; 10 nM, 72 h, vs control cells): significantly higher
